{
  "source": "patent US20220142958A1",
  "about": "“MEDICINAL COMPOSITION HAVING EXCELLENT STABILITY” (EA Pharma Co., Ltd., priority 2019, published 2022)",
  "key": {"serum Ca concentration": {"tested_on": "serum Ca concentration", "experiment": "Serum Ca concentration in bilaterally nephrectomized rats after single intravenous administration", "assay_type": "in vivo, rat", "from_the_text": "After quarantine and acclimatization periods of 6 days, fifty-one rats (Crl: CD (SD), male) aged 7 weeks were fed a 100% sucrose diet ad libitum from four days before the surgery. On the day of the surgery, skin incisions were made on the back at the sites of the right and left kidneys under isoflurane anesthesia and the renal capsules were removed to ligate the renal arteries and veins and the ureters using threads before removing the right and left kidneys. A penicillin solution was given upon suturing, and 5 mL of physiological saline was intraperitoneally administered before returning the rats into the breeding cages.\nOn the day of administering the test substance, for example, a day after the bilaterally nephrectomy, approximately 100 μL of blood was collected from the tail vein without anesthesia using a capillary tube, which was centrifuged in a high speed refrigerated microcentrifuge (10,000 rpm, 5 min, 4° C.) to separate the serum. Thereafter, the serum Ca concentration was measured with a dri-chemanalyzer (model number: FUJI DRI-CHEM 7000, manufacturer: FUJI FILM Medical Co., Ltd.) to select individuals with a serum Ca concentration of 8.0 mg/dL or more and less than 14.0 mg/dL.\nOn a day after the bilaterally nephrectomy, the given doses were calculated based on the weight of the selected animals on that day. Group 1 was given a medium (physiological saline), Groups 2, 3 and 4 were given the Compound A1 solution (0.3, 3 and 30 mg/mL, respectively), and Groups 5, 6, 7 and 8 (5 rats per group) were given the comparative compound (0.3, 1, 3 and 10 mg/mL, respectively), each given a single dose of 1 ml/kg from the tail vein. Prior to the administration (0 hours), and 24 and 48 hours after the administration, approximately 300 μL of blood was collected without anesthesia from the tail vein using capillary tubes for obtaining the serum. The blood for obtaining the serum was left to stand at room temperature, and centrifuged in a high speed refrigerated microcentrifuge (10,000 rpm, 5 min, 4° C.) within a period of 30 minutes to 2 hours after the blood collection to collect the serum.\nThereafter, the serum Ca was analyzed with COBAS analyzer (Model number: COBAS INTEGRA 400 plus, manufacturer: Roche Diagnostics K.K.), and the remaining serum was stored in an ultra-low freezer (temperature set to −80±15° C.) until the day of iPTH measurement. On the day of iPTH measurement, the serum was melted at room temperature for measurement.\nA 30 mg/ml Compound A1 solution ([…] of Compound A1 dissolved in 10 ml of physiological saline) was diluted with physiological saline to prepare 0.3 mg/ml and […] Compound A1 solutions.\n149 mg of etelcalcetide (Ac-c(C) arrrar-NH2) TFA salt (WO 2011/014707 A) was prepared to have pH of 6 to 8 with 7 ml of physiological saline and a 0.5N aqueous NaOH solution, and physiological saline was further added thereto to make 10 ml. The prepared 10 mg/ml comparative compound solution was diluted with physiological saline to obtain 0.3 mg/ml and 1 mg/ml comparative compound solutions."}, "[1]": {"experiment": "Example 4A: residual ratio and reaction rate constant after storage at 60° C.", "assay_type": "physicochemical", "conditions": "for Reaction rate constant at 60° C. / Residual ratio (%): 0.1 mg/mL", "procedure": "Compound A1 was dissolved in each of the buffer solutions shown in Table 10 so that a concentration was 0.1 mg/mL. Each of these solutions was dispensed into a glass vial and stored at 60° C. After the storage, a residual ratio was calculated according to a test method described below.\nTest method: In the solution after the storage, the residual ratio was analyzed according to a normal method using a liquid chromatography apparatus Prominence (manufactured by Shimadzu Corporation) and an ultraviolet absorptiometer (measurement wavelength: 254 nm, Prominence (manufactured by Shimadzu Corporation)). At this time, SUMIPAX ODS (3 mm×150 mm, 5 μm, manufactured by SCAS) was used as a column.\nThe calculation for obtaining the residual ratio (%) of Compound A1 during each storage period is as follows.\nResidual ratio (%) of Compound A1 during each storage period=peak area of Compound A1 in sample solution/peak area of Compound A1 in standard solution×100\nHere, “Compound A1 in standard solution” refers to a solution obtained by dissolving Compound A1 in each of the buffer solutions shown in Table 10 so that a concentration was 0.1 mg/mL, and then storing the solution at 5° C. It was clear from the results of Example 1 that the solution of Compound A1 was stable when being stored at 5° C., and thus, the solution was used as the standard solution.\nThe reaction rate constant at 60° C. was calculated using the obtained residual ratio."}, "serum iPTH": {"tested_on": "serum iPTH", "experiment": "PK and PK/PD analysis of P1 (three-compartment model, indirect response model incorporating rebound)", "assay_type": "in vivo, human", "conditions": "±standard error", "procedure": "A PK/PD analysis was conducted to estimate the clinically effective dose based on the results from P1. The dose of 2.5 mg seemed to be excessive and thus was eliminated from the analysis. PK (mean plasma concentration) and PD (mean iPTH level normalized by the levels of the placebo group and the 0-hour level) data of the doses of 0.01 mg, 0.1 mg and 1 mg were used. An indirect response model incorporating rebound was used for the PK/PD analysis.\nBased on the results of PK of the three given doses (0.01 mg, 0.1 mg, and 1 mg) in P1, the three given doses were simultaneously analyzed using a three-compartment model to calculate the PK parameters (FIG. 2-5 and Table 16-2).\nUsing the calculated PK parameters as an input function, PK/PD analysis was performed using an indirect response model incorporating rebound (FIG. 2-6) to calculate the EC50 value in healthy adults (FIG. 2-7 and Table 16-3)."}},
  "data": [
    {"smiles": "Cc1c(Cl)cc(S(=O)(=O)[O-])cc1NC(=O)NC[C@H](N)C(=O)O.[Na+]", "note": "[Compound A1, sodium 3-{[(2S)-2-amino-2-carboxyethyl]carbamoylamino}-5-chloro-4-methylbenzenesulfonate]", "values": [
      {"measurement": "mean serum Ca concentration", "setting": "serum Ca concentration; 0.3 mg/kg single i.v., 24 hours after the administration", "value": 9.07, "unit": "mg/dL"},
      {"measurement": "mean serum Ca concentration", "setting": "serum Ca concentration; 0.3 mg/kg single i.v., 48 hours after the administration", "value": 10.24, "unit": "mg/dL"},
      {"measurement": "mean serum Ca concentration", "setting": "serum Ca concentration; 3 mg/kg single i.v., 24 hours after the administration", "value": 7.97, "unit": "mg/dL"},
      {"measurement": "mean serum Ca concentration", "setting": "serum Ca concentration; 3 mg/kg single i.v., 48 hours after the administration", "value": 8.55, "unit": "mg/dL"},
      {"measurement": "mean serum Ca concentration", "setting": "serum Ca concentration; 30 mg/kg single i.v., 24 hours after the administration", "value": 7.99, "unit": "mg/dL"},
      {"measurement": "mean serum Ca concentration", "setting": "serum Ca concentration; 30 mg/kg single i.v., 48 hours after the administration", "value": 8.14, "unit": "mg/dL"},
      {"measurement": "lower limit value of the serum Ca concentration (simulated)", "setting": "serum Ca concentration; logistic curve fitting, 48 hours after the administration vs given dose", "value": 8.072, "unit": "mg/dL"},
      {"measurement": "Reaction rate constant at 60° C.", "setting": "[1]; pH 1.1", "value": "6.3 × 10^−4"},
      {"measurement": "Residual ratio (%)", "setting": "[1]; pH 1.1, 60° C., 24 hours", "value": 97.8, "unit": "%"},
      {"measurement": "Residual ratio (%)", "setting": "[1]; pH 1.1, 60° C., 113 hours", "value": 92.7, "unit": "%"},
      {"measurement": "Residual ratio (%)", "setting": "[1]; pH 1.1, 60° C., 161 hours", "value": 90.2, "unit": "%"},
      {"measurement": "Reaction rate constant at 60° C.", "setting": "[1]; pH 2.0", "value": "6.5 × 10^−4"},
      {"measurement": "Residual ratio (%)", "setting": "[1]; pH 2.0, 60° C., 24 hours", "value": 98.1, "unit": "%"},
      {"measurement": "Residual ratio (%)", "setting": "[1]; pH 2.0, 60° C., 113 hours", "value": 92.4, "unit": "%"},
      {"measurement": "Residual ratio (%)", "setting": "[1]; pH 2.0, 60° C., 161 hours", "value": 90.1, "unit": "%"},
      {"measurement": "Reaction rate constant at 60° C.", "setting": "[1]; pH 3.0", "value": "7.5 × 10^−4"},
      {"measurement": "Residual ratio (%)", "setting": "[1]; pH 3.0, 60° C., 24 hours", "value": 98.3, "unit": "%"},
      {"measurement": "Residual ratio (%)", "setting": "[1]; pH 3.0, 60° C., 113 hours", "value": 91.5, "unit": "%"},
      {"measurement": "Residual ratio (%)", "setting": "[1]; pH 3.0, 60° C., 161 hours", "value": 88.9, "unit": "%"},
      {"measurement": "Reaction rate constant at 60° C.", "setting": "[1]; pH 4.0", "value": "7.6 × 10^−4"},
      {"measurement": "Residual ratio (%)", "setting": "[1]; pH 4.0, 60° C., 24 hours", "value": 98.1, "unit": "%"},
      {"measurement": "Residual ratio (%)", "setting": "[1]; pH 4.0, 60° C., 113 hours", "value": 91.5, "unit": "%"},
      {"measurement": "Residual ratio (%)", "setting": "[1]; pH 4.0, 60° C., 161 hours", "value": 88.5, "unit": "%"},
      {"measurement": "Reaction rate constant at 60° C.", "setting": "[1]; pH 5.0", "value": "7.9 × 10^−4"},
      {"measurement": "Residual ratio (%)", "setting": "[1]; pH 5.0, 60° C., 24 hours", "value": 98.0, "unit": "%"},
      {"measurement": "Residual ratio (%)", "setting": "[1]; pH 5.0, 60° C., 113 hours", "value": 91.3, "unit": "%"},
      {"measurement": "Residual ratio (%)", "setting": "[1]; pH 5.0, 60° C., 161 hours", "value": 88.0, "unit": "%"},
      {"measurement": "Reaction rate constant at 60° C.", "setting": "[1]; pH 6.0", "value": "7.8 × 10^−4"},
      {"measurement": "Residual ratio (%)", "setting": "[1]; pH 6.0, 60° C., 24 hours", "value": 98.1, "unit": "%"},
      {"measurement": "Residual ratio (%)", "setting": "[1]; pH 6.0, 60° C., 113 hours", "value": 91.5, "unit": "%"},
      {"measurement": "Residual ratio (%)", "setting": "[1]; pH 6.0, 60° C., 161 hours", "value": 88.3, "unit": "%"},
      {"measurement": "Reaction rate constant at 60° C.", "setting": "[1]; pH 7.0", "value": "8.2 × 10^−4"},
      {"measurement": "Residual ratio (%)", "setting": "[1]; pH 7.0, 60° C., 24 hours", "value": 98.2, "unit": "%"},
      {"measurement": "Residual ratio (%)", "setting": "[1]; pH 7.0, 60° C., 113 hours", "value": 91.0, "unit": "%"},
      {"measurement": "Residual ratio (%)", "setting": "[1]; pH 7.0, 60° C., 161 hours", "value": 87.8, "unit": "%"},
      {"measurement": "change of reaction rate constant at 60° C. when the pH of the formulation was changed", "setting": "[1]; pH 1.1 to 7.0", "value": "not significantly changed"},
      {"measurement": "Emax", "setting": "serum iPTH; healthy adults, indirect response model incorporating rebound", "value": "0.920 ± 0.027", "unit": "ratio"},
      {"measurement": "K12", "setting": "serum iPTH; three-compartment model", "value": "0.658 ± 0.136", "unit": "h⁻¹"},
      {"measurement": "K13", "setting": "serum iPTH; three-compartment model", "value": "4.42 ± 1.80", "unit": "h⁻¹"},
      {"measurement": "K21", "setting": "serum iPTH; three-compartment model", "value": "0.819 ± 0.049", "unit": "h⁻¹"},
      {"measurement": "K31", "setting": "serum iPTH; three-compartment model", "value": "6.89 ± 1.33", "unit": "h⁻¹"},
      {"measurement": "Ke", "setting": "serum iPTH; three-compartment model", "value": "1.28 ± 0.15", "unit": "h⁻¹"}
    ]}
  ]
}
